Measurements published in patent publication US7667042B2, “Stable polymorphic forms of an anticonvulsant” (Sun Pharma Advanced Research Company Ltd., priority 2003, dated 2010).
Where “and” joins values, the source holds several entries; their conditions need not be identical. Equal values may be shown once. Where a name gives a salt, the structure may show the parent alone. Blank lines part the entries; values can stand above or below the compound they belong to.

Columns and labels:
[1] = XRD analysis after 6 months storage at ambient conditions (polymorph stability); format: physicochemical; conditions: hydrochloride
Excerpt: In embodiment of the present invention the stable polymorph IV of tiagabine hydrochloride may be obtained in particle size with volume mean diameter (VMD) less than 20 microns.

[2] = Particle size analysis by HELOS (H1551) & RODOS; format: physicochemical; conditions: hydrochloride
Excerpt: Particle Size Analysis (Analysed by HELOS (H1551) & RODOS)

[3] = reported in prior art, cited from earlier work; for Thermal stability: elevated temperature, hydrochloride
[4] = Solubility of tiagabine hydrochloride in various solvents at room temperature; format: physicochemical; conditions: 100 mg sample

- Change in x-ray diffraction pattern on storage (polymorphic stability) [1]: matches the XRD of ‘0’ day sample
- Volume mean diameter (VMD) [2]: 16.7 microns and 19.8 microns
Compound: Cc1ccsc1C(=CCCN1CCC[C@@H](C(=O)O)C1)c1sccc1C [Form IV, tiagabine hydrochloride]
- Change in x-ray diffraction pattern on storage (polymorphic stability) ([1]; listed as polymorph IV): no change in the x-ray diffraction pattern

Compound: Cc1ccsc1C(=CCCN1CCC[C@@H](C(=O)O)C1)c1sccc1C [Form II, tiagabine hydrochloride]
- Thermal stability [3]: thermally stable
- Hygroscopicity [3]: non-hygroscopic

- Solubility: volume of solvent ([4]; Acetone): 24 mL
- Solubility: volume of solvent ([4]; Acetonitrile): >100 mL
- Solubility: volume of solvent ([4]; DMF): 0.5 mL
- Solubility: volume of solvent ([4]; Ethanol): 0.3 mL
- Solubility: volume of solvent ([4]; Ethylacetate): >100 mL
- Solubility: volume of solvent ([4]; IPA): 1.3 mL
- Solubility: volume of solvent ([4]; Methanol): 0.2 mL
- Solubility: volume of solvent ([4]; Toluene): >100 mL
- Solubility: volume of solvent ([4]; Water): 0.7 mL
Compound: Cc1ccsc1C(=CCCN1CCC[C@@H](C(=O)O)C1)c1sccc1C [tiagabine hydrochloride]

- Volume mean diameter (VMD) [2]: 60.2 microns
Compound: Cc1ccsc1C(=CCCN1CCC[C@@H](C(=O)O)C1)c1sccc1C [Form I, tiagabine hydrochloride]
- Thermal stability [3]: less stable at elevated temperature
- Hygroscopicity [3]: non-hygroscopic
- Stability [3]: stable
